Assay results from ChEMBL document CHEMBL1147800, “Osteoblast differentiation stimulating activity of biflavonoids from Cephalotaxus koreana” (2006).
Active and inactive are the calls of the source. No cut-off for these calls is given here.

Key:
[1] = tested on: Osteoblast; assay: Cytotoxicity against mouse primary osteoblasts at 20 uM by MTT assay; type: functional, cell-based
[2] = tested on: Osteoblast; assay: Increase in ALP activity in mouse primary osteoblasts at 1 uM relative to control; type: functional
[3] = tested on: Osteoblast; assay: Increase in ALP activity in mouse primary osteoblasts at 10 uM relative to control; type: functional
[4] = tested on: Osteoblast; assay: Increase in ALP activity in mouse primary osteoblasts at 20 uM relative to control; type: functional
[5] = tested on: Osteoblast; assay: Effect on mineralization in mouse primary osteoblasts by measuring calcium deposition; type: functional, cell-based
[6] = tested on: Osteoblast; assay: Increase in collagen synthesis in mouse primary osteoblasts; type: functional, cell-based
[7] = tested on: Osteoblast; assay: Increase in collagen synthesis in mouse primary osteoblasts at 10 uM relative to control; type: functional

| SMILES | Activity [1] | Activity [2] [%] | Activity [3] [%] | Activity [4] [%] | Activity [5] | Activity [6] | Activity [7] [%] |
| --- | --- | --- | --- | --- | --- | --- | --- |
| COc1cc(O)c2c(=O)cc(-c3ccc(OC)c(-c4c(O)cc(O)c5c(=O)cc(-c6ccc(O)cc6)oc45)c3)oc2c1 [GINKGETIN] | Active | 116.8 | 69.3 | 39.9 |  |  |  |
| COc1ccc(-c2cc(=O)c3c(O)cc(OC)c(-c4cc(-c5cc(=O)c6c(O)cc(OC)cc6o5)ccc4OC)c3o2)cc1 |  | 105.1 | 147.3 | 149.5 | Active | Active |  |
| COc1ccc(-c2cc(=O)c3c(O)cc(O)cc3o2)cc1-c1c(O)cc(O)c2c(=O)cc(-c3ccc(O)cc3)oc12 [BILOBETIN] |  | 100.9 | 131.9 | 130.6 | Active |  |  |
| O=c1c(-c2ccc(O)cc2)coc2cc(O)ccc12 [DAIDZEIN] |  | 107.8 | 132.8 | 128.1 |  |  |  |
| COc1cc(O)c2c(=O)cc(-c3ccc(OC)c(-c4c(OC)cc(O)c5c(=O)cc(-c6ccc(O)cc6)oc45)c3)oc2c1 |  | 108.4 | 129.7 | 122 |  |  |  |
| COc1ccc(-c2cc(=O)c3c(O)cc(O)cc3o2)cc1-c1c(OC)cc(O)c2c(=O)cc(-c3ccc(O)cc3)oc12 | Active | 101.1 | 113 | 73.5 |  |  |  |
| COc1ccc(-c2cc(=O)c3c(O)cc(O)c(-c4cc(-c5cc(=O)c6c(O)cc(OC)cc6o5)ccc4OC)c3o2)cc1 [SCIADOPITISIN] |  | 121.1 | 149 | 153 | Active |  | 180 |
